Measurements: US11999746B2, “Compounds” (GlaxoSmithKline Intellectual Property Development Limited, priority 2014, dated 2024)
Structures can show the parent of a compound that is named as a salt.

Key:
[1] = molecular target: T1, recombinant human Lp-PLA2 (Homo sapiens, UniProt Q13093); experiment: (1b) hrThioPAF assay, recombinant human Lp-PLA2; format: biochemical; settings: Examples 266-412 were tested here, one experiment or average of multiple experiments, read-out: rhLp-PLA2 (pIC50) (converted)
T1 sequence (Q13093 22-441): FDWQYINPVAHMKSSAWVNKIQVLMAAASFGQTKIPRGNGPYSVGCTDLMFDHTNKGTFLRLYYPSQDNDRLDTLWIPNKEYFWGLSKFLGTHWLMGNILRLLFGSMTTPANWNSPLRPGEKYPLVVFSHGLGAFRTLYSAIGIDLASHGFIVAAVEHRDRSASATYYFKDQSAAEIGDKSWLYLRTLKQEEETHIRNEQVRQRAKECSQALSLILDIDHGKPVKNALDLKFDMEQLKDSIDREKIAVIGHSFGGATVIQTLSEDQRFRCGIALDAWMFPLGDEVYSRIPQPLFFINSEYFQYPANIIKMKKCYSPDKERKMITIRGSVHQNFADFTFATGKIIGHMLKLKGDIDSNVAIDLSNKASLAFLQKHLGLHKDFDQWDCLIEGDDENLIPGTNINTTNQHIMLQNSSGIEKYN
Method in brief: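 Fluorogenic assay: 20 pM rhLp-PLA2 in 50 mM HEPES pH 7.4, 150 mM NaCl, 1 mM CHAPS with 1:3 serially diluted compounds; substrate mix of 40 μM 2-thio-PAF, 40 μM CPM, 400 μM NEM (pre-addition levels). 20 min at 25 °C in the dark; fluorescence ex 380/em 485 nm, pIC50 by curve fitting.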

Lp-PLA2 in human plasma = molecular target: T2, Lp-PLA2 in human plasma (Homo sapiens, UniProt Q13093); experiment: (3b) Lp-PLA2 human plasma alternative Thio-PAF assay; format: biochemical; settings: (3b) alternative Thio-PAF assay, pooled human plasma; Examples of 266-412 were tested here; read-out: pIC50 in the Lp-PLA2 human plasma assay (converted)
T2 construct: from tissue; host or cells: pooled human plasma
T2 sequence (Q13093 22-441): T1 sequence (Q13093 22-441)
Procedure: (3b) Alternative Thio-PAF Assay
The human plasma assay utilizes the same thioester analog of PAF as described in (1b) “hr ThioPAF” assay. This assay may detect the activity of Lp-PLA2 in human plasma, as determined by specific inhibition by Lp-PLA2 inhibitors.
The thio-PAF assay was run as a quenched 20 μL assay. Compounds source plate was prepared by making 1:3 (by volume) serial dilution of the compounds into pure DMSO on 96-well microplate. 5 μL of compounds on compound source plate were transferred to 96-well Corning 3686 (black) low-volume plates by STAR+(Hamilton) liquid dispenser. 10 μL pooled human plasma, which was previously aliquoted and frozen, was added. Plates were centrifuged for 30 sec at 1000 rpm. After 15 minutes preincubation at room temperature, 5 μL of substrate solution comprising 2 mM 2-thio-PAF [from ethanol stock], 52 μM CPM [from a DMSO stock] and 2.5 mM NEM (N-ethylmaleimide) [made fresh daily in DMSO] in assay buffer (50 mM HEPES, pH 7.4, 150 mM NaCl, 1 mM CHAPS) was added to 96-well Corning 3686 (black) low-volume plates. After 3 mins, reaction was quenched with 10 μL of 5% aqueous trifluoroacetic acid (TFA). Plates were centrifuged 30 sec at 1000 rpm, covered to protect from light and incubated for 10 min at room temperature. Plates were read at ex: 380 nm/em: 485 nm using Envision plate reader (Perkin Elmer). Raw data were transferred to Excel software and pIC50 data, curve and QC analysis was conducted by using XL fit module in Excel.

Row | SMILES | IC50 [1] | IC50 (Lp-PLA2 in human plasma)
1 | CN(C)CC(=O)N1CCN2c3cc(OCc4ccc(F)c(C#N)c4)nc(=O)n3CC2C1 (stereo not drawn) [Example E284, 5-(((2-(2-(Dimethylamino)acetyl)-9-oxo-2,3,4,9,11,11a-hexahydro-1H-pyrazino[1,2′:3,4]imidazo[1,2-c]pyrimidin-7-yl)oxy)methyl)-2-fluorobenzonitrile] | ≤ 10 µM | ≤ 0.1 µM
2 | [2H]C1([2H])C2CN(C(C)=O)CCN2c2cc(OCc3ccc(F)c(C#N)c3)nc(=O)n21 (stereo not drawn) [Example E285, 5-(((2-Acetyl-11,11-dideutero-9-oxo-2,3,4,9,11,11a-hexahydro-1H-pyrazino[1′,2′:3,4]imidazo[1,2-c]pyrimidin-7-yl)oxy)methyl)-2-fluorobenzonitrile] | ≤ 10 µM | ≤ 0.1 µM
3 | CS(=O)(=O)N1CCN2c3cc(OCc4ccc(F)c(C#N)c4)nc(=O)n3CC2C1 (stereo not drawn) [Example E286, 2-Fluoro-5-(((2-(methylsulfonyl)-9-oxo-2,3,4,9,11,11a-hexahydro-1H-pyrazino[1′,2′:3,4]imidazo[1,2-c]pyrimidin-7-yl)oxy)methyl)benzonitrile hydrochloride] | ≤ 10 µM | ≤ 0.1 µM
4 | [2H]C1([2H])C2CN(S(C)(=O)=O)CCN2c2cc(OCc3ccc(F)c(C#N)c3)nc(=O)n21 (stereo not drawn) [Example E287, 5-(((11,11-Dideutero-2-(methylsulfonyl)-9-oxo-2,3,4,9,11,11a-hexahydro-1H-pyrazino[1′,2′:3,4]imidazo[1,2-c]pyrimidin-7-yl)oxy)methyl)-2-fluorobenzonitrile] | ≤ 10 µM | ≤ 0.1 µM
5 | N#Cc1cc(COc2cc3n(c(=O)n2)CC2CN(C(=O)CCN)CCN32)ccc1F (stereo not drawn) [Example E288, 5-(((2-(3-Aminopropanoyl)-9-oxo-2,3,4,9,11,11a-hexahydro-1H-pyrazino[1′,2′:3,4]imidazo[1,2-c]pyrimidin-7-yl)oxy)methyl)-2-fluorobenzonitrile] | ≤ 10 µM | ≤ 0.1 µM
6 | CCC(=O)N1CCN2c3cc(OCc4ccc(F)c(C#N)c4)nc(=O)n3CC2C1 (stereo not drawn) [Example E289, 2-Fluoro-5-(((9-oxo-2-propionyl-2,3,4,9,11,11a-hexahydro-1H-pyrazino[1′,2′:3,4]imidazo[1,2-c]pyrimidin-7-yl)oxy)methyl)benzonitrile 2,2,2-trifluoroacetate] | ≤ 10 µM | ≤ 0.1 µM
7 | CC(C)C(=O)N1CCN2c3cc(OCc4ccc(F)c(C#N)c4)nc(=O)n3CC2C1 (stereo not drawn) [Example E290, 2-Fluoro-5-(((2-isobutyryl-9-oxo-2,3,4,9,11,11a-hexahydro-1H-pyrazino[1′,2′:3,4]imidazo[1,2-c]pyrimidin-7-yl)oxy)methyl)benzonitrile 2,2,2-trifluoroacetate] | ≤ 10 µM | ≤ 0.1 µM
8 | CCCC(=O)N1CCN2c3cc(OCc4ccc(F)c(C#N)c4)nc(=O)n3CC2C1 (stereo not drawn) [Example E291, 5-(((2-Butyryl-9-oxo-2,3,4,9,11,11a-hexahydro-1H-pyrazino[1′,2′:3,4]imidazo[1,2-c]pyrimidin-7-yl)oxy)methyl)-2-fluorobenzonitrile 2,2,2-trifluoroacetate] | ≤ 10 µM | ≤ 0.1 µM
9 | N#Cc1cc(COc2cc3n(c(=O)n2)CC2CN(C(=O)C4CC4)CCN32)ccc1F (stereo not drawn) [Example E292, 5-(((2-(cyclopropanecarbonyl)-9-oxo-2,3,4,9,11,11a-hexahydro-1H-pyrazino[1′,2′:3,4]imidazo[1,2-c]pyrimidin-7-yl)oxy)methyl)-2-fluorobenzonitrile 2,2,2-trifluoroacetate] | ≤ 10 µM | ≤ 0.1 µM
10 | CC(C)CC(=O)N1CCN2c3cc(OCc4ccc(F)c(C#N)c4)nc(=O)n3CC2C1 (stereo not drawn) [Example E293, 2-Fluoro-5-(((2-(3-methylbutanoyl)-9-oxo-2,3,4,9,11,11a-hexahydro-1H pyrazino[1′,2′:3,4]imidazo[1,2-c]pyrimidin-7-yl)oxy)methyl)benzonitrile] | ≤ 10 µM | ≤ 0.1 µM
11 | CC(C)(C)C(=O)N1CCN2c3cc(OCc4ccc(F)c(C#N)c4)nc(=O)n3CC2C1 (stereo not drawn) [Example E294, 2-Fluoro-5-(((9-oxo-2-pivaloyl-2,3,4,9,11,11a-hexahydro-1H-pyrazino[1′,2′:3,4]imidazo[1,2-c]pyrimidin-7-yl)oxy)methyl)benzonitrile 2,2,2-trifluoroacetate] | ≤ 10 µM | ≤ 0.1 µM
12 | CC(C)S(=O)(=O)N1CCN2c3cc(OCc4ccc(F)c(C#N)c4)nc(=O)n3CC2C1 (stereo not drawn) [Example E295, 2-Fluoro-5-(((2-(isopropylsulfonyl)-9-oxo-2,3,4,9,11,11a-hexahydro-1H-pyrazino[1′,2′:3,4]imidazo[1,2-c]pyrimidin-7-yl)oxy)methyl)benzonitrile 2,2,2-trifluoroacetate] | ≤ 10 µM | ≤ 0.1 µM
13 | N#Cc1cc(COc2cc3n(c(=O)n2)CC2CN(S(=O)(=O)C4CC4)CCN32)ccc1F (stereo not drawn) [Example E296, 5-(((2-(Cyclopropylsulfonyl)-9-oxo-2,3,4,9,11,11a-hexahydro-1H-pyrazino[1′,2′:3,4]imidazo[1,2-c]pyrimidin-7-yl)oxy)methyl)-2-fluorobenzonitrile 2,2,2-trifluoroacetate] | ≤ 10 µM | ≤ 0.1 µM
14 | N#Cc1cc(COc2cc3n(c(=O)n2)CC2CN(C(=O)C4(N)CC4)CCN32)ccc1F (stereo not drawn) [Example E297, 5-(((2-(1-Aminocyclopropanecarbonyl)-9-oxo-2,3,4,9,11,11a-hexahydro-1H-pyrazino[1′,2′:3,4]imidazo[1,2-c]pyrimidin-7-yl)oxy)methyl)-2-fluorobenzonitrile 2,2,2-trifluoroacetate] | ≤ 10 µM | ≤ 0.1 µM
15 | CC(C)(N)CC(=O)N1CCN2c3cc(OCc4ccc(F)c(C#N)c4)nc(=O)n3CC2C1 (stereo not drawn) [Example E298, 5-(((2-(3-Amino-3-methylbutanoyl)-9-oxo-2,3,4,9,11,11a-hexahydro-1H-pyrazino[1′,2′:3,4]imidazo[1,2-c]pyrimidin-7-yl)oxy)methyl)-2-fluorobenzonitrile 2,2,2-trifluoroacetate] | ≤ 10 µM | ≤ 0.1 µM
16 | CC(=O)N1CCN2c3cc(OCc4cc(F)c(Oc5ccc(C)nc5)c(F)c4)nc(=O)n3CC2C1 (stereo not drawn) [Example E299, 2-Acetyl-7-((3,5-difluoro-4-((6-methylpyridin-3-yl)oxy)benzyl)oxy)-3,4,11,11a-tetrahydro-1H-pyrazino[1′,2′:3,4]imidazo[1,2-c]pyrimidin-9(2H)-one] | ≤ 10 µM | ≤ 0.1 µM
17 | COC(=O)N1CCN2c3cc(OCc4ccc(F)c(F)c4)nc(=O)n3CC2C1 (stereo not drawn) [Example E300, Methyl 7-((3,4-difluorobenzyl)oxy)-9-oxo-3,4,11,11a-tetrahydro-1H-pyrazino[1′,2′:3,4]imidazo[1,2-c]pyrimidine-2(9H)-carboxylate] | ≤ 10 µM | ≤ 0.1 µM
18 | CN(C)C(=O)N1CCN2c3cc(OCc4ccc(F)c(F)c4)nc(=O)n3CC2C1 (stereo not drawn) [Example E301, 7-((3,4-Difluorobenzyl)oxy)-N,N-dimethyl-9-oxo-3,4,11,11a-tetrahydro-1H-pyrazino[1′,2′:3,4]imidazo[1,2-c]pyrimidine-2(9H)-carboxamide] | ≤ 10 µM | ≤ 0.1 µM
19 | N#Cc1cc(COc2cc3n(c(=O)n2)CC2CN(C(=O)C4CCC4)CCN32)ccc1F (stereo not drawn) [Example E302, 5-(((2-(Cyclobutanecarbonyl)-9-oxo-2,3,4,9,11,11a-hexahydro-1H-pyrazino[1′,2′:3,4]imidazo[1,2-c]pyrimidin-7-yl)oxy)methyl)-2-fluorobenzonitrile] | ≤ 10 µM | ≤ 0.1 µM
20 | CC(C)C(=O)C(=O)N1CCN2c3cc(OCc4ccc(F)c(F)c4)nc(=O)n3CC2C1 (stereo not drawn) [Example E303, 1-(7-((3,4-Difluorobenzyl)oxy)-9-oxo-3,4,11,11a-tetrahydro-1H-pyrazino[1′,2′:3,4]imidazo[1,2-c]pyrimidin-2(9H)-yl)-3-methylbutane-1,2-dione] | ≤ 10 µM | ≤ 0.1 µM
21 | CCCN1CCN2c3cc(OCc4ccc(F)c(F)c4)nc(=O)n3CC2C1 (stereo not drawn) [Example E304, 7-((3,4-Difluorobenzyl)oxy)-2-propyl-3,4,11,11a-tetrahydro-1H-pyrazino[1′,2′:3,4]imidazo[1,2-c]pyrimidin-9(2H)-one] | ≤ 10 µM | ≤ 0.1 µM
